# Tests used:
# Type in all cases: binding
# [1] = molecular target: T1, CCR2 (Homo sapiens, UniProt P41597); experiment: NanoBRET screen HiBiT-CCR2 in HEK293
# T1 construct: purchased Promega (in-house HiBiT-GPCR construct library, NanoBRET)
# Description: (§1) Each tracer candidate was screened across the entire library of HiBiT-GPCR constructs using NanoBRET as the detection modality. As depicted in Figure 4A, the specificity of interactions was evaluated through decrease in BRET due to competitive displacement of a bound tracer by excess parental compound. Each tracer was analyzed for binding to each HiBiT-GPCR fusion in the absence and in the presence of competing parental compound. Briefly, HEK293 cells were transfected with HiBiT-GPCR constructs diluted into promoterless DNA to reduce expression and maximize translocation to the cell surface. Each tracer candidate was then screened at concentrations of 1 μM and 0.1 μM across cells expressing these fusions. Cells were treated for 1.5 h with tracer either alone or in the presence of 20 μM competing parental compound (i.e., control). BRET was measured upon addition of purified LgBiT and subsequent complementation with HiBiT genetically fused to a GPCR. The specificity of interactions was assessed through a decrease in BRET signal due to competitive displacement of the bound tracer. To further gauge the robustness of these interactions, the fold response over the control (i.e., BRETtracer/BRETcontrol) was calculated. We chose a 1.5-fold response, which translates to ≥7-fold signal over noise as the minimal threshold required to score an interaction as positive. […]. Below we highlight the screening results obtained for our exemplary fluorescent tracers based on Clozapine, Amitriptyline and AZD1283.
# (§2) HiBiT-GPCR DNA constructs were diluted in 10 mM Tris pH 8 to a final concentration of 0.01 μg/μL, arrayed in 96-well plates and stored at −20 °C. For transfection, HEK293 cells were suspended in Opti-MEM (without phenol red) supplemented with 2% fetal bovine serum (Seradigm) and 100 units/mL penicillin–streptomycin (Gibco) at a final concentration of 220,000 cells/mL and dispensed into white 96-well plates at 90 μL/well. Subsequent transfections and screens were carried using an Agilent Bravo Automated Liquid Handling Platform. First, the 96-well HiBiT DNA arrays were diluted 25-fold in Opti-MEM (without serum or phenol red) to a final concentration of 0.0004 μg/μL and 20 μL of the diluted DNAs were transferred into new 96-well plates. Next, promoterless carrier DNA (1 μg/μL) was diluted 25-fold (0.04 μg/μL) and then dispensed into the diluted arrays at 20 μL/well. Following brief mixing, Viafect transfection reagent (Promega) diluted 16-fold into Opti-MEM was dispensed into the plates at 40 μL/well. After mixing by pipetting, plates were incubated for 10 min on the pipetting station deck. The DNA-transfection reagent complexes were then added to plates containing cells. To facilitate the screen, 10 μL of DNA-transfection reagent complexes were added in duplicates to the top 4 and bottom 4 rows, resulting in two identical 48-well arrays per plate. Plates with transfected cells were incubated for 18–20 h at 37 °C/5% CO2. A screen of each tracer across the entire library using two different concentrations requires duplicate plates of transfected cells. Depending on the number of tracers being screened, transfections can be scaled up using the same ratios. The next day, for each tracer, four 20× screening solutions in tracer dilution buffer (Promega) were prepared: two duplicates at final concentration of 20 μM and two duplicates at a final concentration of 2 μM. A competing unmodified compound was added to one of each duplicate at a final concentration of 400 μM. The four resulting solutions were diluted 4-fold in Opti-MEM without serum or phenol red to generate 5× solutions (5 µM and 0.5 µM tracer +/− 100 μM competing compound). To screen the library, a BioTek MultiFlo FX liquid dispenser was used to dispense 22.5 µL of tracer solution to the top 4 rows and 22.5 µL tracer + competing compound solution to the 4 bottom rows. Plates were briefly mixed on an orbital shaker and incubated for 1.5 h at room temperature. […]
# [2] = molecular target: T2, SMO (Homo sapiens, UniProt Q99835); experiment: NanoBRET screen HiBiT-SMO in HEK293; details: SMO
# T2 construct: purchased Promega (in-house HiBiT-GPCR construct library, NanoBRET)
# T2 sequence (Q99835 28-787): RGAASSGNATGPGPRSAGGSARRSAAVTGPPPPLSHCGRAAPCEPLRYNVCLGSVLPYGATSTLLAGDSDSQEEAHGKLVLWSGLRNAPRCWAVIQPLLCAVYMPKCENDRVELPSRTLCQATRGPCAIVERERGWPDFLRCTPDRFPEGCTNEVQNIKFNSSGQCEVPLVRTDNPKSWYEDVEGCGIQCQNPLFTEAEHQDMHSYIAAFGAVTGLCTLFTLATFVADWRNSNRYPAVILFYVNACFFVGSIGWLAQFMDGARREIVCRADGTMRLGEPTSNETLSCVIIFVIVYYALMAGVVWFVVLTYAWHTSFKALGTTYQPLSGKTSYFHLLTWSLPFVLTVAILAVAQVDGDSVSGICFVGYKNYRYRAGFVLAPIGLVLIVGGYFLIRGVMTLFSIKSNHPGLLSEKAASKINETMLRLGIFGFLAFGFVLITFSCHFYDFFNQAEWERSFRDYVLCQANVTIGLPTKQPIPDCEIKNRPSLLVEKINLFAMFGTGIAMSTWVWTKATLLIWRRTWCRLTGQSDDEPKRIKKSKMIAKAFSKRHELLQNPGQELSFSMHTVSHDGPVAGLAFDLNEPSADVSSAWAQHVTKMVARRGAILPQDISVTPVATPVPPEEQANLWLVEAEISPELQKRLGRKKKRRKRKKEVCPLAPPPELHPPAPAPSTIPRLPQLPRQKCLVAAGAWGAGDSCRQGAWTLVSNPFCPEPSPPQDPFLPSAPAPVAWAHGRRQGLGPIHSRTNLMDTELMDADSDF
# Description: as §1, §2
# [3] = molecular target: T3, SSTR1 (Homo sapiens, UniProt P30872); experiment: NanoBRET screen HiBiT-SSTR1 in HEK293
# T3 construct: purchased Promega (in-house HiBiT-GPCR construct library, NanoBRET)
# T3 sequence (P30872 whole entry): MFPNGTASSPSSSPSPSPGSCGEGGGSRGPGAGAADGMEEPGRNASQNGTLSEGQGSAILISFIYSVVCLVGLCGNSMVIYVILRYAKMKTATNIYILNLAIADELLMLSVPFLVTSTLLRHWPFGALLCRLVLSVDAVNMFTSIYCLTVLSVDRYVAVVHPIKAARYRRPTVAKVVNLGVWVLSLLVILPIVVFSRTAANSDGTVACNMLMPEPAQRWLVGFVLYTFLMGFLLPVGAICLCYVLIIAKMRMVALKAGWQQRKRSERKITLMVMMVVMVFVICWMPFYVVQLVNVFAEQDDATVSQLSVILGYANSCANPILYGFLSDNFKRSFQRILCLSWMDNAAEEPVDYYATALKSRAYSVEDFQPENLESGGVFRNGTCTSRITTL
# Description: as §1, §2
# [4] = molecular target: T4, DRD5 (Homo sapiens, UniProt P21918); experiment: NanoBRET screen HiBiT-DRD5 in HEK293
# T4 construct: purchased Promega (in-house HiBiT-GPCR construct library, NanoBRET)
# T4 sequence (P21918 whole entry): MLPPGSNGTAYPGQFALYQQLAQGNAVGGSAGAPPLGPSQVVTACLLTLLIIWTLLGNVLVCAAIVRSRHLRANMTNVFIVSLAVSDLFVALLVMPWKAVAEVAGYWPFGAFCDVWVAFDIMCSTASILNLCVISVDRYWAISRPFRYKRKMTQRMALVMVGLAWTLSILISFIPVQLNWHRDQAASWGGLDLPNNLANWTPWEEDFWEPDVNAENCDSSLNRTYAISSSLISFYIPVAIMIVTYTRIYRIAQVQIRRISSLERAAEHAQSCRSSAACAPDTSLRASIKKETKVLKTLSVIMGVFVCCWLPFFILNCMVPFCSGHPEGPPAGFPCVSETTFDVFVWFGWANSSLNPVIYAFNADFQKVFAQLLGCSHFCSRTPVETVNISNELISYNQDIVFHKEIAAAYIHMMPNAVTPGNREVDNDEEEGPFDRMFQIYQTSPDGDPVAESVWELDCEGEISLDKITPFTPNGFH
# Description: as §1, §2
# [5] = molecular target: T5, PTAFR (Homo sapiens, UniProt P25105); experiment: NanoBRET screen HiBiT-PTAFR in HEK293
# T5 construct: purchased Promega (in-house HiBiT-GPCR construct library, NanoBRET)
# T5 sequence (P25105 whole entry): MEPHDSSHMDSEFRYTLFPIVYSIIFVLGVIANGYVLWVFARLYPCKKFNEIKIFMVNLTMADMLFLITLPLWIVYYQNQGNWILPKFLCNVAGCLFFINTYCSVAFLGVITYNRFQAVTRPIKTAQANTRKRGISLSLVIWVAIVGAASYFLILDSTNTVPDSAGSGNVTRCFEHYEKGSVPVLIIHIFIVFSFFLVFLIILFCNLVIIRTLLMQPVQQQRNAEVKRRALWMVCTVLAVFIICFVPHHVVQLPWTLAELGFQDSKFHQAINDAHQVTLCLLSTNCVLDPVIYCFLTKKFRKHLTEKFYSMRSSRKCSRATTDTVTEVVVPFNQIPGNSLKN
# Description: as §1, §2
# [6] = molecular target: T6, CNR1 (Homo sapiens, UniProt P21554); experiment: NanoBRET screen HiBiT-CNR1 in HEK293; details: CNR1
# T6 construct: purchased Promega (in-house HiBiT-GPCR construct library, NanoBRET)
# T6 sequence (P21554 whole entry): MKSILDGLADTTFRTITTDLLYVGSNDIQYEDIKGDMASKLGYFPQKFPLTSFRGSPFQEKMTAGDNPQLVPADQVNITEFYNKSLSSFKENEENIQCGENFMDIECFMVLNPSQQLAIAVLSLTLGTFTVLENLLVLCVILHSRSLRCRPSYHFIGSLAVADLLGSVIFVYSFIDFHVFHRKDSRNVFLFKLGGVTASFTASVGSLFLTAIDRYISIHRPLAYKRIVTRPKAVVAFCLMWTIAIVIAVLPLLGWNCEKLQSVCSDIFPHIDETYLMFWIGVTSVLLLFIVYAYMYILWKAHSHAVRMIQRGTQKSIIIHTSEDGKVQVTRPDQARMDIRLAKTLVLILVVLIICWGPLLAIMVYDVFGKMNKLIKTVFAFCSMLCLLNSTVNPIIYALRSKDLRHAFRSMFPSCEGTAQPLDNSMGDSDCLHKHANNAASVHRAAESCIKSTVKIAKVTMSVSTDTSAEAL
# Description: as §1, §2
# [7] = molecular target: T7, RXFP3 (Homo sapiens, UniProt Q9NSD7); experiment: NanoBRET screen HiBiT-RXFP3 in HEK293
# T7 construct: purchased Promega (in-house HiBiT-GPCR construct library, NanoBRET)
# T7 sequence (Q9NSD7 1-469): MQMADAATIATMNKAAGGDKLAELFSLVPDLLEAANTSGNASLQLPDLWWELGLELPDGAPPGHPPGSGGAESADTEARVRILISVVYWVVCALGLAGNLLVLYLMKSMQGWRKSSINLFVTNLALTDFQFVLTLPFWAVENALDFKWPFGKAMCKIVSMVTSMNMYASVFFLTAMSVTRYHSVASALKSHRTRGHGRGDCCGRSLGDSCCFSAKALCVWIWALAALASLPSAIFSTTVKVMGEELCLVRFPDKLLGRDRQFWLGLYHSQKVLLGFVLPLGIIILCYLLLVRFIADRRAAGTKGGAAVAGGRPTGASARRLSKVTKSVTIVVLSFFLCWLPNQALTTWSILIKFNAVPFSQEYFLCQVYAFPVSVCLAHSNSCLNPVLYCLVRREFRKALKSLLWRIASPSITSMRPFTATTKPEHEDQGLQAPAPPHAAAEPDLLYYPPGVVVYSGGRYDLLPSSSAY
# Description: as §1, §2
# [8] = molecular target: T8, PTGDR2 (Homo sapiens, UniProt Q9Y5Y4); experiment: NanoBRET screen HiBiT-PTGDR2 in HEK293; details: PTGDR2
# T8 construct: purchased Promega (in-house HiBiT-GPCR construct library, NanoBRET)
# T8 sequence (Q9Y5Y4 1-395): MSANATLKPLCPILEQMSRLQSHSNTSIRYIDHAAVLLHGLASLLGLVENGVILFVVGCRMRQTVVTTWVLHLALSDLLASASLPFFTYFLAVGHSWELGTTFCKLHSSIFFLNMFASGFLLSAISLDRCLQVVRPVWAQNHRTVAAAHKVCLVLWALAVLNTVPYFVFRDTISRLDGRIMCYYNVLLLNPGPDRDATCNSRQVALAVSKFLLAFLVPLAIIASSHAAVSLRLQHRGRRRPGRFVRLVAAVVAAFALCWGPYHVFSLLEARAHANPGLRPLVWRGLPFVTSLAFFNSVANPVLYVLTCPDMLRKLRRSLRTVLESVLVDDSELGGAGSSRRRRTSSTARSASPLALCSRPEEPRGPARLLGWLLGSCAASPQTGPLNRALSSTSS
# Description: as §1, §2
# [9] = molecular target: T9, HTR1D (Homo sapiens, UniProt P28221); experiment: NanoBRET screen HiBiT-HTR1D in HEK293
# T9 construct: purchased Promega (in-house HiBiT-GPCR construct library, NanoBRET)
# T9 sequence (P28221 whole entry): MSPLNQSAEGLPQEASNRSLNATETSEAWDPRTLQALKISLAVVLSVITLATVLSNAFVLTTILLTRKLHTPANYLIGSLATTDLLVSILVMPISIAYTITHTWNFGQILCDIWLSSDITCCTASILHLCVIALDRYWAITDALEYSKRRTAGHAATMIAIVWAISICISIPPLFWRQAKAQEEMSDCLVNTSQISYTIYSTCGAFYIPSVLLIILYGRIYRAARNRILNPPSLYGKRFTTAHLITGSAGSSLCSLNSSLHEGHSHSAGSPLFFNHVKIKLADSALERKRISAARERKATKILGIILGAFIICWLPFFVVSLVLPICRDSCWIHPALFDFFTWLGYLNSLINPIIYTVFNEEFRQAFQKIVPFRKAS
# Description: as §1, §2
# T1 sequence (P41597 whole entry): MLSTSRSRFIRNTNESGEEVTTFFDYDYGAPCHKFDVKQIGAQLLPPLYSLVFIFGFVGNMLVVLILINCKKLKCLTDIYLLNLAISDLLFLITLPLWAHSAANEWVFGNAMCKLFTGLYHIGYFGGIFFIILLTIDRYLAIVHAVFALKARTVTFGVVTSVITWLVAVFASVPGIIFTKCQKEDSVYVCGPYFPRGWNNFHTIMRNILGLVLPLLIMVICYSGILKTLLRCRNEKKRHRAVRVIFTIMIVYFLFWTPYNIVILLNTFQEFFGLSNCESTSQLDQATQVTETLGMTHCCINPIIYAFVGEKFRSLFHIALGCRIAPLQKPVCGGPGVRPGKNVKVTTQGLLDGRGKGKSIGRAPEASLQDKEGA
smiles,measurement,setting,value
CC(C)N(CC[C@H](c1ccccc1)c1cc(CCNC(=O)CCOCCOCCOCCOCCNC(=O)CCc2ccc3n2[B-](F)(F)[N+]2=C(c4ccc[nH]4)C=CC2=C3)ccc1O)C(C)C [Tolterodine-2-NB590],NanoBRET Fold Response,"[1]; CCR2, tracer 0.1μM",1.20
same,NanoBRET Fold Response,"[1]; CCR2, tracer 1μM",0.98
same,NanoBRET Fold Response,[2]; tracer 0.1μM,0.73
same,NanoBRET Fold Response,[2]; tracer 1μM,0.83
same,NanoBRET Fold Response,"[3]; SSTR1, tracer 0.1μM",1.11
same,NanoBRET Fold Response,"[3]; SSTR1, tracer 1μM",1.21
same,NanoBRET Fold Response,"[4]; DRD5, tracer 0.1μM",1.01
same,NanoBRET Fold Response,"[4]; DRD5, tracer 1μM",1.04
same,NanoBRET Fold Response,"[5]; PTAFR, tracer 0.1μM",1.17
same,NanoBRET Fold Response,"[5]; PTAFR, tracer 1μM",0.73
same,NanoBRET Fold Response,[6]; tracer 0.1μM,1.03
same,NanoBRET Fold Response,[6]; tracer 1μM,1.14
same,NanoBRET Fold Response,"[7]; RXFP3, tracer 0.1μM",1.18
same,NanoBRET Fold Response,"[7]; RXFP3, tracer 1μM",1.10
same,NanoBRET Fold Response,[8]; tracer 0.1μM,0.95
same,NanoBRET Fold Response,[8]; tracer 1μM,0.99
same,NanoBRET Fold Response,"[9]; HTR1D, tracer 0.1μM",1.35
same,NanoBRET Fold Response,"[9]; HTR1D, tracer 1μM",0.68
CN(C)CCC=C1c2ccccc2CCc2ccc(C(=O)NCCNC(=O)CCOCCOCCOCCOCCNC(=O)CCc3ccc4n3[B-](F)(F)[N+]3=C(c5ccc[nH]5)C=CC3=C4)cc21 [Amitriptyline-a-2-NB590],NanoBRET Fold Response,[1]; tracer at 0.1μM,1.19
same,NanoBRET Fold Response,[1]; tracer at 1μM,1.05
same,NanoBRET Fold Response,[3]; tracer at 0.1μM,1.30
same,NanoBRET Fold Response,[3]; tracer at 1μM,1.28
same,NanoBRET Fold Response,[4]; tracer at 0.1μM,1.11
same,NanoBRET Fold Response,[4]; tracer at 1μM,1.12
same,NanoBRET Fold Response,[5]; tracer at 0.1μM,1.10
same,NanoBRET Fold Response,[5]; tracer at 1μM,0.90
same,NanoBRET Fold Response,[7]; tracer at 0.1μM,0.97
same,NanoBRET Fold Response,[7]; tracer at 1μM,0.99
same,NanoBRET Fold Response,[9]; tracer at 0.1μM,1.09
same,NanoBRET Fold Response,[9]; tracer at 1μM,1.09
N#CN/C(=N\CCNC(=O)c1ccc(N)cc1)NCCCOc1cccc(CN2CCCCC2)c1 [Aminopotentidine (unmodified)],NanoBRET Fold Response,"[4]; DRD5, other tracers/Aminopotentidine (unmodified), 0.1μM",1.08
same,NanoBRET Fold Response,"[4]; DRD5, other tracers/Aminopotentidine (unmodified), 1μM",1.09
same,NanoBRET Fold Response,"[9]; HTR1D, other tracers/Aminopotentidine (unmodified), 0.1μM",1.06
same,NanoBRET Fold Response,"[9]; HTR1D, other tracers/Aminopotentidine (unmodified), 1μM",1.50
CN(CCC=C1c2ccccc2CCc2ccccc21)C(=O)CCOCCOCCOCCOCCNC(=O)CCc1ccc2n1[B-](F)(F)[N+]1=C(c3ccc[nH]3)C=CC1=C2 [Amitriptyline-e-2-NB590],NanoBRET Fold Response,[1]; tracer at 1μM,0.90
same,NanoBRET Fold Response,[4]; tracer at 1μM,1.11
same,NanoBRET Fold Response,[5]; tracer at 1μM,1.06
same,NanoBRET Fold Response,[9]; tracer at 1μM,0.96

# From PMC8151276, “An Integrated Approach toward NanoBRET Tracers for Analysis of GPCR Ligand Engagement” (Molecules, 2021)
